Experimental findings from patent US20100013377A1, “Compounds for use in Opto-Electrical Devices” (CDT OXFORD LIMITED, priority 2006, published 2010) are described below.

Usually solubility stands for the concentration that dissolves in the medium under given conditions.

For this data set the following is noted: in all of xylene, toluene, chlorobenzene, chloroform or tetrahydrofuran. An excerpt: By “solubilizing substituent” we mean a substituent which renders the triazine sufficiently soluble in organic solvents that it can be solution processed to fabricate an opto-electrical device by, for example, ink-jet printing or spin-coating. […] Organic solvents suitable for opto-electrical device fabrication include xylene, toluene, chlorobenzene, chloroform or tetrahydrofuran but preferably toluene or xylene.

Bounds are passed on as bounds.

With `c1ccc(-c2ccc(-c3nc(-c4ccc(-c5ccccc5)cc4)nc(-c4ccc(-c5ccccc5)cc4)n3)cc2)cc1` [2,4,6-tris(biphenyl)-1,3,5-triazine], the solubility is under 5000 µg/mL.
